Numbering of substitutions follows the chain as printed. Where “and” joins values, the source holds several entries; their conditions need not be identical. Identical values can stand only once. Like-named read-outs stand apart in the source and are kept apart here.
Key:
Test in all cases: MUP hydrolysis (esterase) assay
Type in all cases: biochemical
LCAT R244A = target: T1, LCAT R244A (Homo sapiens, UniProt P04180, R268A)
T1 construct: hydrolysis of 4-methylumbelliferyl palmitate (MUP) by full-length LCAT; made in house; host or cells: HEK293F (transient transfection, secreted)
T1 sequence (P04180 25-440 R268A): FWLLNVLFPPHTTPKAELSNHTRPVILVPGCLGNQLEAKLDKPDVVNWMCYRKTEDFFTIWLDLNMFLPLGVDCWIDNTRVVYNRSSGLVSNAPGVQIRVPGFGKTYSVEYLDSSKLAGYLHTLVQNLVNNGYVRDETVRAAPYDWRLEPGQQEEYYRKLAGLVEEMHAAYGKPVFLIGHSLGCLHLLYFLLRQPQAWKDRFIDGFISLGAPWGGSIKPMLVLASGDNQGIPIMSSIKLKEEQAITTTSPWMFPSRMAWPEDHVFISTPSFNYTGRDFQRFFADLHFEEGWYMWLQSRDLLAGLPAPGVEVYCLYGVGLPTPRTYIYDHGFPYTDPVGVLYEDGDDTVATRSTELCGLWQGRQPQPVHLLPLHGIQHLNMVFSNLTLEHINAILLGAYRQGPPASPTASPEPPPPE
Method: (§1) The lipase activity of LCAT was measured using MUP as a substrate. The assay was performed at room temperature in 0.1 M sodium phosphate buffer, pH 7.4 containing 0.01% Triton X-100. 4 μL of LCAT (6 nM final concentration) were dispensed into a 1536-well Greiner solid black plate. The same volume of assay buffer was dispensed into column 1 and 2 for a no-enzyme control. Then 23 nL DMSO or compounds titrated at 11-point 1:3 dilution series starting at 10 mM were transferred using a pintool. After 15 min incubation, 2 μL MUP (16 μM final concentration) was added to initiate the reaction. The hydrolysis of MUP was monitored using a ViewLux plate reader (excitation 380 nm/emission 450 nm) for 20 min. The fluorescence signal was normalized against no-activator and no-enzyme control after subtraction of background signal (t = 0 min). To plot percent activation, in each assay 100% was set at the rate of LCAT or LCAT variant without compound. The resulting data were fitted to a sigmoidal dose response curve.

LCAT R244H = target: T2, LCAT R244H (Homo sapiens, UniProt P04180, R268H)
T2 construct: hydrolysis of 4-methylumbelliferyl palmitate (MUP) by full-length LCAT; made in house; host or cells: HEK293F (transient transfection, secreted)
T2 sequence (P04180 25-440 R268H): T1 sequence (P04180 25-440 R268A) with A244H
Method: as §1

WT LCAT = target: T3, WT LCAT (Homo sapiens, UniProt P04180); design: hydrolysis of 4-methylumbelliferyl palmitate (MUP) by full-length LCAT; made in house; host or cells: HEK293F (transient transfection, secreted)
T3 sequence (P04180 25-440): T1 sequence (P04180 25-440 R268A) with A244R
Method: as §1, with “Then 23 nL DMSO or compounds titrated at 11-point 1:3 dilution series starting at 10 mM were transferred using a pintool.” left out

LCAT Y51S = target: T4, LCAT Y51S (Homo sapiens, UniProt P04180, Y75S)
T4 construct: hydrolysis of 4-methylumbelliferyl palmitate (MUP) by full-length LCAT; made in house; host or cells: HEK293F (transient transfection, secreted)
T4 sequence (P04180 25-440 Y75S): T1 sequence (P04180 25-440 R268A) with Y51S, A244R
Method: as §1, with “Then 23 nL DMSO or compounds titrated at 11-point 1:3 dilution series starting at 10 mM were transferred using a pintool.” left out

[1] = compound titrated from 0.04 to 9.5 μM
[2] = compound titrated from 0.04 to 9.5 μM, read-out: MUP assay EC50
[3] = WT, compound titrated from 0.04 to 9.5 μM, read-out: MUP assay EC50
[4] = Y51S, compound titrated from 0.04 to 9.5 μM
[5] = WT, compound titrated from 0.04 to 9.5 μM
[6] = read-out: EC50, MUP esterase assay

SMILES	Fold activation, MUP esterase assay (LCAT R244A; [1])	EC50 (LCAT R244A; [2]) [nM]	Fold activation, MUP esterase assay (LCAT R244H; [1])	EC50 (LCAT R244H; [2]) [nM]	EC50 (WT LCAT; [3]) [nM]	EC50 (LCAT Y51S; [4]) [nM]	Fold activation, MUP esterase assay (LCAT Y51S; [4])	MUP assay EC50 (LCAT R244A; [1])	MUP assay EC50 (LCAT R244H; [1])	Fold activation, MUP esterase assay (WT LCAT; [5])	MUP assay EC50 (WT LCAT; [5])	MUP assay EC50 (LCAT Y51S; [4])	EC50 (LCAT R244A; [6]) [nM]	EC50 (LCAT R244H; [6]) [nM]	EC50 (WT LCAT; full-length WT LCAT, read-out: EC50, MUP hydrolysis) [nM]	MUP EC50 of Y51S relative to WT (LCAT Y51S; fold higher than WT) [fold]
O=C1CC(O)(C(F)(F)F)c2c(ncn2C2CCN(c3cnc(C(F)(F)F)cn3)CC2)N1 (stereo not shown) [compound 3, 7-Hydroxy-7-(trifluoromethyl)−1-(1-(5-(trifluoromethyl)pyrazin-2-yl)piperidin-4-yl)−6,7-dihydro-1H-imidazo[4,5-b]pyridin-5(4H)-one]	1.9 ± 0.2 fold	400 ± 30	1.8 ± 0.1 fold	470 ± 50	320 ± 50	1600 ± 400	1.9 ± 0.2 fold	–	–	–	–	–	–	–	–	–
O=C1CC(O)(C(F)(F)F)c2c(ncn2C2CCNCC2)N1 (stereo not shown) [compound 6, 7-Hydroxy-1-(piperidin-4-yl)−7-(trifluoromethyl)−6,7-dihydro-1H-imidazo[4,5-b]pyridin-5(4H)-one]	no effect	–	no effect	–	–	–	no effect	no effect	no effect	no activating effect	no effect	no effect	–	–	–	–
N#Cc1cnc(N2CCC(c3n[nH]c4c3C(O)(C(F)(F)F)CC(=O)N4)CC2)cc1C(F)(F)F (stereo not shown) [compound 1, 6-(4-(4-Hydroxy-6-oxo-4-(trifluoromethyl)−4,5,6,7-tetrahydro-1H-pyrazolo[3,4-b]pyridin-3-yl)piperidin-1-yl)−4-(trifluoromethyl)nicotinonitrile]	1.7 ± 0.4 fold	130 ± 20	1.6 ± 0.3 fold	160 ± 30	160 ± 10	590 ± 30	1.9 ± 0.2 fold	–	–	–	–	–	~150	~150	~150	4
O=c1cc(C(F)(F)F)c2c(ncn2C2CCN(c3cnc(C(F)(F)F)cn3)CC2)[nH]1 [compound 8, 7-(trifluoromethyl)−1-(1-(5-(trifluoromethyl)pyrazin-2-yl)piperidin-4-yl)−1H-imidazo[4,5-b]pyridin-5(4H)-one]	3.2 ± 0.8 fold	> 10000	2.8 ± 0.6 fold	> 10000	4600 ± 60	> 10000	2.8 ± 0.6 fold	–	–	3.7 fold and 3.7 ± 0.9 fold	–	–	–	–	–	–
O=C1CC(O)(C(F)(F)F)c2c(C3CCN(c4cnc(C(F)(F)F)cn4)CC3)n[nH]c2N1 (stereo not shown) [compound 2, 4-Hydroxy-4-(trifluoromethyl)−3-(1-(5-(trifluoromethyl)pyrazin-2-yl)piperidin-4-yl)−4,5-dihydro-1H-pyrazolo[3,4-b]pyridin-6(7H)-one]	1.9 ± 0.2 fold	270 ± 40	1.8 ± 0.1 fold	320 ± 30	280 ± 40	740 ± 200	1.8 ± 0.1 fold	–	–	–	–	–	–	–	–	–
O=C1CC(O)(C(F)(F)F)c2c(C3CCN(c4cnc(C(F)(F)F)cn4)CC3)noc2N1 (stereo not shown) [compound 9, 4-hydroxy-4-(trifluoromethyl)−3-(1-(5-(trifluoromethyl)pyrazin-2-yl)piperidin-4-yl)−4,5-dihydroisoxazolo[5,4-b]pyridin-6(7H)-one]	1.2 ± 0.1 fold	6200 ± 800	1.3 ± 0.06 fold	7600 ± 1000	7700 ± 2000	> 10000	1.1 ± 0.07 fold	–	–	1.6 fold and 1.6 ± 0.2 fold	–	–	–	–	–	–
